The source made the active and inactive calls.
Tests used:
[1] = target: T1, Neuropeptide Y receptor type 2 (Homo sapiens, UniProt P49146); assay: Fluorescence-based cell-based high-throughput dose response assay for agonists of NPY-Y2. [Related pubchem assays: 1703 (Screening assay (CNGC inhibitors).), 1359 (Screening assay (NPY-Y2 potentiators or agonists).), 1304 (Screening assay (NPY-Y1 potentiators or agonists).), 1710 (Screening assay (NPY-Y2 agonists).), 1791 (Summary AID.)]; format: functional
T1 sequence (P49146 whole entry): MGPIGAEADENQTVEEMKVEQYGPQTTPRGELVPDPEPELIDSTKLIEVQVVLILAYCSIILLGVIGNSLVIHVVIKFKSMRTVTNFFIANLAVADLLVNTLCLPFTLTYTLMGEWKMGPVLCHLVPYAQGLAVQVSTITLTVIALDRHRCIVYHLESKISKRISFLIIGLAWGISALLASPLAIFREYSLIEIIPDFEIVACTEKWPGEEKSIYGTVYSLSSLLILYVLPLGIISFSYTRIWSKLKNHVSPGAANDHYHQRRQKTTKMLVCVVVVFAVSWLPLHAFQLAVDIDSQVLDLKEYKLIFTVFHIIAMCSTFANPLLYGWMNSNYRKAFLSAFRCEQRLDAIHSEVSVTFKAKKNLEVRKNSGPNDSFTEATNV

[2] = target: T2, Neuropeptide Y receptor type 1 (Homo sapiens, UniProt P25929); assay: Fluorescence-based counterscreen for agonists of NPY-Y2: cell-based high-throughput dose response assay for agonists of NPY-Y1.; format: functional
T2 sequence (P25929 whole entry): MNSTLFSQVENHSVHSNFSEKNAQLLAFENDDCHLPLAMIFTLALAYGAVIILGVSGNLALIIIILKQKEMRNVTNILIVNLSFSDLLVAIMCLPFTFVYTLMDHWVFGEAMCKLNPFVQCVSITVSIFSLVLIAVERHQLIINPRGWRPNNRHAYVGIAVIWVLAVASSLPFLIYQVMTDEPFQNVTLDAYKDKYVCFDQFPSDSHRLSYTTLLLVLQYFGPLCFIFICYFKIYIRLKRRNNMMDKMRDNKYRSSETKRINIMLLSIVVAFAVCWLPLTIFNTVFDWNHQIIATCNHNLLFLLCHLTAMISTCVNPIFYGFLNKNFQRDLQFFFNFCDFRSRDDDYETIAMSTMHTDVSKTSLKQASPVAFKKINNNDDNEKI

HEK293 = assay: Fluorescence-based counterscreen for potentiators or agonists of NPY-Y2: cell-based high-throughput dose response assay to identify inhibitors of cyclic nucleotide gated ion channel (CNGC) activity. In this assay, the parental HEK293 cell line transfected with a cyclic-nucleotide gated ion channel (CNGC)-based cAMP sensor is used to measure inhibition of isoproterenol-induced CNGC activity by test compound.; format: functional; details: Homo sapiens;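 further: stimulus is 1 µM isoproterenol at EC100 plus PDE inhibitor Ro 20-1724 at 25 µM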
[3] = A cytotoxicity screen of small molecule inhibitors of the PhoP region in Salmonella typhi identified in the primary screen. [Related pubchem assays: 1850, 1864, 1985 ]; format: functional
Protein Rev = Protein Rev (Human immunodeficiency virus type 1 group M subtype B (isolate WMJ22)(HIV-1), UniProt P05866); assay: inhibitors of Rev protein–RRE RNA complex – biochemical, protein-RNA interaction, dose response (AID 842); set-up: species or system Human immunodeficiency virus 1
[4] = target: Acyl-homoserine lactone acylase PvdQ (Pseudomonas aeruginosa (strain LESB58), UniProt Q9I194); assay: PvdQ acylase enzyme activity blockers – biochemical, fluorescence, plate reader and imaging, cherry-picks, dose response (AID 493231)
[5] = target: Mothers against decapentaplegic homolog 3 (Homo sapiens, UniProt P84022); assay: blockers of Smad3 complex formation in lysate – cell lysate, secondary confirmation, chemiluminescent ELISA, HEK293 lysate, dose response (AID 1058); format: functional
[6] = target: T3, Heat shock 70 kDa protein 1A (Homo sapiens, UniProt P0DMV8); assay: small-molecule inhibition of Hsp70 – biochemical, TR-FRET (AID 786)
[7] = target: T3, Heat shock 70 kDa protein 1A; assay: small molecules displacing fluorescent ligand from Hsp70 – biochemical, fluorescence polarization, primary screen (AID 583)
NADPH oxidase 1 = NADPH oxidase 1 (Homo sapiens, UniProt Q9Y5S8); format: functional, cell-based;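 further: Cell-based assay with luminescence read-out, IC50 derived from inhibitor dose-response curves; intracellular ROS from endogenous NOX1 in intact HT29 colon cancer cells; potency of inhibitors that lower the ROS luminescence signal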
Chain of NADPH oxidase 1 (Q9Y5S8 whole entry): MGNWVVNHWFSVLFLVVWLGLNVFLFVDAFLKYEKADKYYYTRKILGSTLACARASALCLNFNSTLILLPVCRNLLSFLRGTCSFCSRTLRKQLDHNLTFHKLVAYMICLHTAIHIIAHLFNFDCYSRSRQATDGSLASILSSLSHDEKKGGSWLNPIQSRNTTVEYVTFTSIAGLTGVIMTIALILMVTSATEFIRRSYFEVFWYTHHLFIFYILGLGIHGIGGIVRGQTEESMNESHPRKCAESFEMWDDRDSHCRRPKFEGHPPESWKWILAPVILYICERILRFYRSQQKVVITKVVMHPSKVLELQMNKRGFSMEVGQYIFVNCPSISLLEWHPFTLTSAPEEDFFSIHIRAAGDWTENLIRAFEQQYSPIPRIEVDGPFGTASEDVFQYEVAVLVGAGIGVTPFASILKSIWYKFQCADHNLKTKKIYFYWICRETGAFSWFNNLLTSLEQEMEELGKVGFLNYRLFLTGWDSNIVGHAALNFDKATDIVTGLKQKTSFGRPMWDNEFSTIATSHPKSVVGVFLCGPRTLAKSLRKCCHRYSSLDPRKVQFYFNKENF

T3 sequence (P0DMV8 whole entry): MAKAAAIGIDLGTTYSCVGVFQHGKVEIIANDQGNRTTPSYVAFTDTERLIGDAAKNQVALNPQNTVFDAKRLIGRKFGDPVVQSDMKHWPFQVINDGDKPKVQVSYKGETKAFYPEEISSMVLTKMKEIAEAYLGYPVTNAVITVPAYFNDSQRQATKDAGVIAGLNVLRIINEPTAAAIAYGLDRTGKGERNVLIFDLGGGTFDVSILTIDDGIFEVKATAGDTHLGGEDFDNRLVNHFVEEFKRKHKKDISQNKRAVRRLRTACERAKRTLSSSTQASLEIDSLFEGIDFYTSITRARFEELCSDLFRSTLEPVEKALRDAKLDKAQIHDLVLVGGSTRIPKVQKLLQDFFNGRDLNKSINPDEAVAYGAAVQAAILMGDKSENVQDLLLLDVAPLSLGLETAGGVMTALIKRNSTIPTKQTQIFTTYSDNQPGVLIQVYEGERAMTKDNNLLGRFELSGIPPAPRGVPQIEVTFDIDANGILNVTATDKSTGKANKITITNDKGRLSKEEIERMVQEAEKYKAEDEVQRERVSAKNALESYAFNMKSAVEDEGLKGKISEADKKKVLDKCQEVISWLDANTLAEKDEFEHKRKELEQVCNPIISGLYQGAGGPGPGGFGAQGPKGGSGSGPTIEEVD
Chain of Mothers against decapentaplegic homolog 3 (P84022 whole entry): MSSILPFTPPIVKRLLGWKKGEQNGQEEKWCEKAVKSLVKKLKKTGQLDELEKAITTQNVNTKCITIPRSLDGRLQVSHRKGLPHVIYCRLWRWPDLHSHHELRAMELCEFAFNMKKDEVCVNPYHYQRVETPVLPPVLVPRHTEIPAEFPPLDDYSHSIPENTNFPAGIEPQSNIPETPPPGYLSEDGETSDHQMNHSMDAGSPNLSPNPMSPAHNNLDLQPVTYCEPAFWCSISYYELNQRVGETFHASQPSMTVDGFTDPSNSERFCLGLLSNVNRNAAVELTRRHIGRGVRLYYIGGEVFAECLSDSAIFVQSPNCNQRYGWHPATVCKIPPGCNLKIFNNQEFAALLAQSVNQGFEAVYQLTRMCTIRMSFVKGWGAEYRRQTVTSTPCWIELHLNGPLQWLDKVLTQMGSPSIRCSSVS
Chain of Protein Rev (P05866 whole entry): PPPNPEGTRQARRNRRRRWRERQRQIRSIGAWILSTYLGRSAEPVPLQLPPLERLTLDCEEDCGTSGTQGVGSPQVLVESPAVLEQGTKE
Chain of Acyl-homoserine lactone acylase PvdQ (Q9I194 24-193 limits assumed): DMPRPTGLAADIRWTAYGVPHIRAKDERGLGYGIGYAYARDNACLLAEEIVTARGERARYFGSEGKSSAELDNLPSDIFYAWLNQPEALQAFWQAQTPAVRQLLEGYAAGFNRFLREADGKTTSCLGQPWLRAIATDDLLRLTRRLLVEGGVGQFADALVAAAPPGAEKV
Chain of Acyl-homoserine lactone acylase PvdQ (Q9I194 217-762 limits assumed): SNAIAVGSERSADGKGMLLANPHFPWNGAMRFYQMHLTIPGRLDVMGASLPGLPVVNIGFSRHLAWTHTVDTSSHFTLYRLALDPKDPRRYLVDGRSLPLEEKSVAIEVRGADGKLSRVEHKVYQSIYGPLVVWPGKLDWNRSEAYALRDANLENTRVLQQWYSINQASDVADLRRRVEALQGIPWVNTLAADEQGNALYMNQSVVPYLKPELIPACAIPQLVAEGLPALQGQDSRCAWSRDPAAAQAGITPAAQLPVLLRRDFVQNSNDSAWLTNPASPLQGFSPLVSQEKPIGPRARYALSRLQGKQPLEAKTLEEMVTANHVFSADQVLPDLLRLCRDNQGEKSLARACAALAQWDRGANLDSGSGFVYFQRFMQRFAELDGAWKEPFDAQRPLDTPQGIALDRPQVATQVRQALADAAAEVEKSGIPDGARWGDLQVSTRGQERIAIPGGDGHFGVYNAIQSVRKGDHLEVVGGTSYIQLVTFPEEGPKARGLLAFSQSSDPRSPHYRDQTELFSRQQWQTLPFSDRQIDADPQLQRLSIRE

In the case of `C=CCc1ccccc1OCC(O)CN1CCN(c2ccc(C)cc2)CC1` (stereo not given), the EC50 [1] is reported as 14.8 µM (not active), the EC50 [2] is reported as 8.5 µM (active) and the EC50 (HEK293) is reported as 1.78 µM (active).

For `CC(C)(C)n1nc2c(c1NC(=O)c1ccccc1)CS(=O)(=O)C2`, the EC50 [3] was > 50 µM (active).

For `O=C(CN1C2=NCCN2c2ccccc21)c1ccc(Br)cc1`, the IC50 (Protein Rev) was > 79.4 µM (not active).

With `Clc1ccc2scc(CN3CCCC3)c2c1` the AC50 [4] was 2.66 µM (active).

For `COc1cc(C(c2cc3c(cc2O)OCO3)N2CCOCC2)cc(OC)c1OC` (stereo not given), the IC50 [5] was 9.66 µM (not active).

With `COCCCNC(=O)CC(NS(=O)(=O)c1ccc(C)cc1)c1ccco1` (stereo not given) the IC50 [6] was > 100 µM (not active) and the IC50 [7] was > 100 µM (not active).

In the case of `CN(C)c1ccc(-c2nc(-c3ccccc3)c(-c3ccccc3)[nH]2)cc1`, the IC50 (NADPH oxidase 1) is reported as 7.95 µM (active).

Reference: ChEMBL document CHEMBL1201862, “PubChem BioAssay data set” (2004)
